Data from US20170007727A1, “METHODS OF IMAGING WITH Ga-68 LABELED MOLECULES” (Immunomedics, Inc., priority 2015, published 2017).
Each block holds one molecule with its values, some of them ahead of it. Numbered stars: 1 amine (or outer) side, 2 acyl side, 3 side chain; on linkers, the order of the positions; unused ones are H or OH. Square brackets hold non-standard residues; d marks the D form. Side chains are listed from the residue outwards. Peptide text beside a SMILES is read from it. * marks the point of attachment. DOTA = O=C(O)CN1CCN(CC(=O)O)CCN(CC(=O)*)CCN(CC(=O)O)CC1; NH(2-(imidazol-4-yl)ethyl) = c1ncc(CCN*)[nH]1; Suc = O=C(CCC(=O)[*:2])[*:1]

Experiments:
[1] = complexed with ^177Lu or ^205/206Bi; cited from earlier work
[2] = target: somatostatin receptors on AR42J cells (rat); experiment: apparent IC50, competitive binding on AR42J cells against 111In(DTPA-octreotide), RT 3 h
somatostatin receptors on AR42J cells (rat), sequence (P30680 whole entry): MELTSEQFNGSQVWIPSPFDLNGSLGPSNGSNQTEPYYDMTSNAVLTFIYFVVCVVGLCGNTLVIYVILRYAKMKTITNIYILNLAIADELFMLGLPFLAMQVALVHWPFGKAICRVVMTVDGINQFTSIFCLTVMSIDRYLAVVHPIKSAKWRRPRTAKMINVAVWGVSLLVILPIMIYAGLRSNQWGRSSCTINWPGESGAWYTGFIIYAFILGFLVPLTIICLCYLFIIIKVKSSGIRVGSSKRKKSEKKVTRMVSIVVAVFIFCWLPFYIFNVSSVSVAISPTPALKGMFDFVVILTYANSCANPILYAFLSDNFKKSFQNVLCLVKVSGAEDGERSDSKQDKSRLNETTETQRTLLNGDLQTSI

RIIα dimers = RIIα dimers (Homo sapiens, UniProt P13861); conditions: read-out: affinity for RIIα dimers; cited from earlier work
RIIα dimers, sequence (P13861 whole entry): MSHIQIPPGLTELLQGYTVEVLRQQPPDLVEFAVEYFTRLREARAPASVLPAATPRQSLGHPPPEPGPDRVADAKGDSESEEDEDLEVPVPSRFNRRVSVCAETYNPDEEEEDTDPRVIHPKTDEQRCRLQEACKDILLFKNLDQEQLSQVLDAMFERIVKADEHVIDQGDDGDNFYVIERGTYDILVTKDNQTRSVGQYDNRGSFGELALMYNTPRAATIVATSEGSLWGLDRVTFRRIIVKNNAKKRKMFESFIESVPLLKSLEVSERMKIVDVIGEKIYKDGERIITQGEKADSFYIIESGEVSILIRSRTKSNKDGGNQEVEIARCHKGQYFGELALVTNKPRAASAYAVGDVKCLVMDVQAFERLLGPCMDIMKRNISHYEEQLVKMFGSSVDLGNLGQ

AR42J tumors = experiment: Biodistribution in mice with s.c. AR42J tumors; assay type: in vivo, nude BALB/c mice; conditions: 2 h p.i.
Procedure: Male nude BALB/c mice (6-8 weeks) were injected subcutaneously in the right flank with 0.2 mL AR42J cell suspension of 10^7 cells/mL. Approximately two weeks after tumor cell inoculation when tumors were 5-8 mm in diameter, 370 kBq ^18F- or ^68Ga-labeled IMP 466 was administered intravenously (n=5). Separate groups (n=5) were injected with a 1,000-fold molar excess of unlabeled IMP 466. One group of three mice was injected with unchelated [Al^18F]. All mice were killed by CO2/O2 asphyxiation 2 h post-injection (p.i.). Organs of interest were collected, weighed and counted in a gamma counter. The percentage of the injected dose per gram tissue (% ID/g) was calculated for each tissue. The animal experiments were approved by the local animal welfare committee and performed according to national regulations.

[3] = system: CEA-expressing LS174T tumors; conditions: mouse, in vivo
Procedure: One or two hours after the injection of the radiolabeled peptide, PET/CT images were acquired and the biodistribution of the radiolabeled peptide was determined. Uptake in the LS174T tumor was compared with that in an s.c. CEA-negative SK-RC 52 tumor.
Experiments were performed in male nude BALB/c mice (6-8 weeks old), weighing 20-25 grams. Mice received a subcutaneous injection with 0.2 mL of a suspension of 1×10^6 LS174T-cells, a CEA-expressing human colon carcinoma cell line (American Type Culture Collection, Rockville, Md., USA).
The percentage-injected dose per gram tissue (% ID/g) was calculated.
LS174T tumors were pretargeted by injecting 1.0, 2.5, 5.0 or 10.0 nmol TF2 (160, 400, 800 or 1600 μg).
In the right flank an s.c. LS174T tumor was induced, while at the same time in the same mice 1×10^6 SK-RC 52 cells were inoculated in the left flank to induce a CEA-negative tumor.
Mice were fasted during 10 hours prior to the injection and anaesthetized and kept warm at 37° C. until euthanasia, 1 h postinjection.

[4] = Stability of ^18F-labeled IMP 466 in human serum (RP-HPLC); assay type: in vitro ADME; conditions: 37° C., 4 h
Procedure: Ten μL of the ^18F-labeled IMP 466 was incubated in 500 μL of freshly collected human serum and incubated for 4 h at 37° C. Acetonitrile was added and the mixture was vortexed followed by centrifugation at 1000×g for 5 min to precipitate serum proteins. The supernatant was analyzed on RP-HPLC as described above.

Molecule: O=C(O)CN1CCN(CC(=O)O)CCN(CC(Cc2ccc([N+](=O)[O-])cc2)N(CC(=O)O)CC(=O)O)CC1 (stereo not drawn) [C-NETA]
- stability in serum [1]: up to 14 days

Molecule: 69Ga(IMP 466): NOTA-D-Phe-Cys-Phe-D-Trp-Lys-Thr-Cys-Throl complexed with 69Ga (peptide)
- IC50 [2]: 13 nM

Molecule: 17 residue synthetic AD, SEQ ID NO: 8 QIEYLAKQIVDNAIQQA [AKAP-IS]
- Kd (RIIα dimers): 0.4 nM

Molecule: 115In(DTPA-octreotide) (peptide)
- IC50 [2]: 6.3 nM

More lines, now with the values ahead:

- bone uptake (AR42J tumors): 36.9±5.0 % ID/g
- uptake in the bone [3]: 50.9±11.4 % ID/g
Molecule: [18F][Al+2] [[Al^18F]]

- time to maximum accretion in the tumor [3]: ≤ 1 h
Molecule: NC(=O)[C@@H](CCCCNC(=O)CNC(=O)CCC(=O)NCCc1c[nH]cn1)NC(=O)[C@@H](CCC(=O)O)NC(=O)[C@@H](CCCCNC(=O)CNC(=O)CCC(=O)NCCc1c[nH]cn1)NC(=O)[C@@H](Cc1ccc(O)cc1)NC(=O)CN1CCN(CC(=O)O)CCN(CC(=O)O)CCN(CC(=O)O)CC1 [IMP 288, DOTA-D-Tyr-D-Lys(HSG)-D-Glu-D-Lys(HSG)-NH2] ({DOTA}-[dY][dK]([Gly-Suc-NH(2-(imidazol-4-yl)ethyl)])[dE][dK]([Gly-Suc-NH(2-(imidazol-4-yl)ethyl)])-NH2)

- release of ^18F after incubation in human serum [4]: did not show release of ^18F
Molecule: C[C@@H](O)[C@@H]1NC(=O)[C@H](CCCCN)NC(=O)[C@@H](Cc2c[nH]c3ccccc23)NC(=O)[C@H](Cc2ccccc2)NC(=O)[C@@H](NC(=O)[C@@H](Cc2ccccc2)NC(=O)CN2CCN(CC(=O)O)CCN(CC(=O)O)CC2)CSSC[C@@H](C(=O)N[C@H](CO)[C@@H](C)O)NC1=O [Al^18F(IMP 466)]

- IC50 [2]: 3.6 nM
Molecule: Al19F(IMP 466): NOTA-D-Phe-Cys-Phe-D-Trp-Lys-Thr-Cys-Throl complexed with aluminium fluoride (19F) (peptide)
